# Assays:
# [1] = target: CDK2/Cyclin E1 full length (Homo sapiens (Human), UniProt P24941); assay: CDK2/Cyclin E1 Full Length ADP-Glo Kinase Assay; format: biochemical; conditions: 20 uM ATP, read-out: CDK2/ CyclinE1 IC50
# In short: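 Full-length human CDK2/Cyclin E1 (0.328 nM) pre-incubated 30 min with inhibitor at RT, then reacted 90 min at RT with 20 uM ATP (Km 64.78 uM) and 0.75 uM substrate in pH 7.5 HEPES, 2% DMSO. ADP measured by ADP-Glo luminescence; IC50 from 4-parameter fit of fractional velocity.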
# CDK1/Cyclin B1 = CDK1/Cyclin B1 (Homo sapiens (Human), UniProt P06493); assay: CDK1/Cyclin B1 ADP-Glo Kinase Assay; format: biochemical; conditions: 80 uM ATP
# Sequence of CDK1/Cyclin B1 (P06493 whole entry): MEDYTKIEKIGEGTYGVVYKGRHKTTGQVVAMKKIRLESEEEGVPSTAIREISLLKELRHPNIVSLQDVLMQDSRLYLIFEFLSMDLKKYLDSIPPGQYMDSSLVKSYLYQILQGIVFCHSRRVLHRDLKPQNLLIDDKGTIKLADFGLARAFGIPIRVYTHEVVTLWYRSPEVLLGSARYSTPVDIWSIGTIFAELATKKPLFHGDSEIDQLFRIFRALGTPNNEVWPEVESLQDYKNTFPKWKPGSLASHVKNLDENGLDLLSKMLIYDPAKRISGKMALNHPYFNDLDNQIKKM
# Sequence of CDK1/Cyclin B1 (P14635 whole entry partner): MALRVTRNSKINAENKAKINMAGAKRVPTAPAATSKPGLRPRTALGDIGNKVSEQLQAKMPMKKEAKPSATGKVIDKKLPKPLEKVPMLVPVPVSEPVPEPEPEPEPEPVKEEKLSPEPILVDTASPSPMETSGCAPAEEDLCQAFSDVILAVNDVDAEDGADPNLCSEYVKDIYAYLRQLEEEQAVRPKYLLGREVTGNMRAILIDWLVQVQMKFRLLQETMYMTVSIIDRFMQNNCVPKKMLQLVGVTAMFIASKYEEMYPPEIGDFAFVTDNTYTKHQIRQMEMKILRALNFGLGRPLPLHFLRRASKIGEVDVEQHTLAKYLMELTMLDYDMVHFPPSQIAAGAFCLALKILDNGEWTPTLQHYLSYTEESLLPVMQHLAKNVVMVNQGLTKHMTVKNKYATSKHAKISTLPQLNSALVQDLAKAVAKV
# In short: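 CDK1/cyclin B1 (4.917 nM) preincubated 30 min with inhibitor (2% DMSO), then 80 µM ATP (Km 78.6 µM) and 0.75 µM substrate added; 90 min, room temperature, pH 7.5. ADP measured by ADP-Glo luminescence; IC50 from 4-parameter fit.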
# OVCAR-3 cells = assay: Cell Growth Inhibition, OVCAR-3 (CellTiterGlo, 6 days); format: cell-based; conditions: Homo sapiens, 144 h; OVCAR-3, 6-day treatment, CellTiterGlo 2.0
# In short: (§1)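 MCF-7 and OVCAR-3 cells (RPMI, 10% FBS) were seeded at 500 cells/well onto compound, typically 10–10,000 nM in half-log dilutions. Growth proceeded 6 days at 37 °C, then CellTiterGlo luminescence was read. % inhibition was taken versus control, and IC50 came from a four-parameter variable-slope fit.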
# CDK4/Cyclin D1 = CDK4/Cyclin D1 (Homo sapiens (Human), UniProt P11802); assay: CDK4/Cyclin D1 Mobility Shift Assay (MSA); format: biochemical; conditions: 0.2 mM ATP, read-out: CDK4/ CyclinD1 MSA IC50
# Sequence of CDK4/Cyclin D1 (P11802 whole entry): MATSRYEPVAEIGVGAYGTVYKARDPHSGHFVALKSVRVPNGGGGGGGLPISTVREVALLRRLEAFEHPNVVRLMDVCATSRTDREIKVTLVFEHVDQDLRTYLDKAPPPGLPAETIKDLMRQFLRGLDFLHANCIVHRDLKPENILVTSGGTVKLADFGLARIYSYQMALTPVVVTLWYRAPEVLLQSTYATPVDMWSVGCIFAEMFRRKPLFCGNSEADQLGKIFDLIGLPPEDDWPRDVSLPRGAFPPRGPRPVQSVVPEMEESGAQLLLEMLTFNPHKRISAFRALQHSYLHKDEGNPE
# Sequence of CDK4/Cyclin D1 (P24385 whole entry partner): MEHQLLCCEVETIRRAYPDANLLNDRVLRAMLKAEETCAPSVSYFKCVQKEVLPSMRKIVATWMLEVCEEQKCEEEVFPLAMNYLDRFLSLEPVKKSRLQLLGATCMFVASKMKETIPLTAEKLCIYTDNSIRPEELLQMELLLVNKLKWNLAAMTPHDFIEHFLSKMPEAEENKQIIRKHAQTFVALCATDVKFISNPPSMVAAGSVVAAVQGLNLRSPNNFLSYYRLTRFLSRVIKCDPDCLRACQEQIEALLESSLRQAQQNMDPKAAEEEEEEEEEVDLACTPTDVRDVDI
# In short: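 Reaction: 2.5 nM enzyme, 0.2 mM ATP, 1.5 µM 5-FAM-Dyrktide, 10 mM MgCl2, 2 mM DTT, 2% DMSO, 50 mM HEPES pH 7.5. Inhibitor was preincubated 30 min at 22 °C, then the reaction ran 180 min before EDTA stop. Microfluidic separation of substrate and product gave % conversion, and IC50 came from a 4-parameter fit.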
# MCF-7 cells = assay: Cell Growth Inhibition, MCF-7 (CellTiterGlo, 6 days); format: cell-based; conditions: Homo sapiens, MCF7, 144 h; MCF-7, 6-day treatment, CellTiterGlo 2.0
# In short: as §1
# CDK6/Cyclin D3 = CDK6/Cyclin D3 (Homo sapiens (Human), UniProt Q00534); assay: CDK6/Cyclin D3 ADP-Glo Kinase Assay; format: biochemical; conditions: 100 uM ATP, read-out: CDK6/ CyclinD3 IC50
# Sequence of CDK6/Cyclin D3 (Q00534 whole entry): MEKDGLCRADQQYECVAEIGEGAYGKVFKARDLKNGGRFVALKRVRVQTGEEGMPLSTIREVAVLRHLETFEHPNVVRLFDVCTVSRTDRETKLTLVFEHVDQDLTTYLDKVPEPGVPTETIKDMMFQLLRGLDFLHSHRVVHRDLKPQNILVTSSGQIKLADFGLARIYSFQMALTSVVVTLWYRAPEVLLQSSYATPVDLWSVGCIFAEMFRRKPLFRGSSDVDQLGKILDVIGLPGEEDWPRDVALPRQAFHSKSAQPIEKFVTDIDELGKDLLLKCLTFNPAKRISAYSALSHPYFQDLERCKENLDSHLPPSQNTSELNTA
# Sequence of CDK6/Cyclin D3 (P30281 whole entry partner): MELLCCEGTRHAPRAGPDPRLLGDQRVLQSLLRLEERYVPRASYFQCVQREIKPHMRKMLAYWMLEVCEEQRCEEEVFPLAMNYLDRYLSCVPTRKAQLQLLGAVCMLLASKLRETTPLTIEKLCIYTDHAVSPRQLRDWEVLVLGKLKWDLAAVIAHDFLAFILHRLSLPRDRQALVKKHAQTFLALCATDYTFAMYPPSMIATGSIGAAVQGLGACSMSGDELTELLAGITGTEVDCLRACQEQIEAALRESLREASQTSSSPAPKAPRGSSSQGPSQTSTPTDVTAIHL
# In short: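 Recombinant human CDK6/Cyclin D3 pre-incubated 30 min with inhibitor at room temperature, then reaction started with ATP/substrate and run 90 min at room temperature. ADP formed detected by ADP-Glo luminescence; IC50 from a 4-parameter fit of fractional velocity versus inhibitor concentration.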
Structure (SMILES),IC50 [1] [nM],IC50 (CDK1/Cyclin B1) [nM],IC50 (OVCAR-3 cells) [nM],IC50 (CDK4/Cyclin D1) [nM],IC50 (MCF-7 cells) [nM],IC50 (CDK6/Cyclin D3) [nM]
"COCCN1CC2(CCN(c3cccc4cnc(Nc5ccc(N6CC7(COC7)C6)cn5)nc34)C2)C1 [Example 43, N-(5-(2-oxa-6-azaspiro[3.3]heptan-6-yl)pyridin-2-yl)-8-(2-(2-methoxyethyl)-2,6-diazaspiro[3.4]octan-6-yl)quinazolin-2-amine]",> 2000,> 2000,> 2000,200 to 500,500 to 2000,500 to 2000
"CC(=O)N1CCC2(CCN(c3c(F)ccc4cnc(NC5CCN(S(C)(=O)=O)CC5)nc34)C2)C1 (stereo not drawn) [Example 45, 1-(7-(7-fluoro-2-((1-(methylsulfonyl)piperidin-4-yl)amino)quinazolin-8-yl)-2,7-diazaspiro[4.4]nonan-2-yl)ethan-1-one]",< 200,500 to 2000,> 2000,< 200,> 2000,< 200
"CCN1CC2(C1)CN(c1ccc(Nc3ncc4cccc(N5CCC6(CCN(C(C)=O)C6)C5)c4n3)nc1)C2 (stereo not drawn) [Example 46, 1-(7-(2-((5-(6-ethyl-2,6-diazaspiro[3.3]heptan-2-yl)pyridin-2-yl)amino)quinazolin-8-yl)-2,7-diazaspiro[4.4]nonan-2-yl)ethan-1-one]",> 2000,> 2000,> 2000,< 200,500 to 2000,200 to 500
"CC(=O)N1CCC2(CCN(c3cccc4cnc(Nc5ccc(N6CC7(C6)CC(F)(F)C7)cn5)nc34)C2)C1 (stereo not drawn) [Example 47, 1-(7-(2-((5-(6,6-difluoro-2-azaspiro[3.3]heptan-2-yl)pyridin-2-yl)amino)quinazolin-8-yl)-2,7-diazaspiro[4.4]nonan-2-yl)ethan-1-one]",> 2000,> 2000,> 2000,200 to 500,> 2000,200 to 500
"CCN1CC2(C1)CN(c1ccc(Nc3ncc4cccc(N5CC6(CC(O)C6)C5)c4n3)nc1)C2 [Example 48, 2-(2-((5-(6-ethyl-2,6-diazaspiro[3.3]heptan-2-yl)pyridin-2-yl)amino)quinazolin-8-yl)-2-azaspiro[3.3]heptan-6-ol]",> 2000,> 2000,> 2000,< 200,500 to 2000,< 200
"CC(=O)N1CCC2(CCN(c3cc(C(F)F)cc4cnc(NC5CCN(S(C)(=O)=O)CC5)nc34)C2)C1 (stereo not drawn) [Example 50, 1-(7-(6-(difluoromethyl)-2-((1-(methylsulfonyl)piperidin-4-yl)amino)quinazolin-8-yl)-2,7-diazaspiro[4.4]nonan-2-yl)ethan-1-one]",< 200,200 to 500,> 2000,< 200,500 to 2000,< 200
"CC(=O)N1CCC2(CCN(c3cc(C(F)F)cc4cnc(Nc5ccc(N6CCN(C)CC6)cc5)nc34)C2)C1 (stereo not drawn) [Example 51, 1-(7-(6-(difluoromethyl)-2-((4-(4-methylpiperazin-1-yl)phenyl)amino)quinazolin-8-yl)-2,7-diazaspiro[4.4]nonan-2-yl)ethan-1-one]",500 to 2000,> 2000,500 to 2000,< 200,500 to 2000,< 200
"CC(=O)N1CCC2(CCN(c3cc(C(F)F)cc4cnc(Nc5cnn(C(C)C)c5)nc34)C2)C1 (stereo not drawn) [Example 52, 1-(7-(6-(difluoromethyl)-2-((1-isopropyl-1H-pyrazol-4-yl)amino)quinazolin-8-yl)-2,7-diazaspiro[4.4]nonan-2-yl)ethan-1-one]",500 to 2000,500 to 2000,500 to 2000,< 200,200 to 500,500 to 2000
